Key:
Type in all cases: cell-based
[1] = tested on: A431 (EGFR-WT); test: Cell proliferation assay (CellTiter-Glo), A431 cells; settings: Homo sapiens, A-431, 72 hrs, CTG assay, * = average of multiple measurements
Protocol: (§1) I. Cell proliferation assay (i) Reagents and consumables • Fetal bovine serum (FBS) (GBICO, Cat #10099-141); • CellTiter-Glo® Luminescent Cell Viability Assay Kit (Promega, Cat #G7572); • Black transparent flat-bottomed 96-well plate (Corning®, Cat #3603).
(§2) • SpectraMax Multi-Label Microplate Detector MD, 2104-0010A; • CO2 incubator, Thermo Scientific 3100 Series; • Biosafety cabinet, Thermo Scientific, 1300 Series type A2; • Inverted microscope, Olympus, CKX41SF; • Siemens refrigerator KK25E76TI. (iii) Cell lines and culture conditions
(§3) (iv) Experimental procedures 1. Cell culture and seeding: • (1) Cells in the logarithmic growth phase were harvested, and counted using a platelet counter. Cell viability was detected by the trypan blue exclusion assay to ensure that the cell viability was above 90%. • (2) The cell concentration was adjusted to achieve the final density; and 90 μL of the cell suspension was added to the 96-well plate. • (3) The cells were incubated in the 96-well plate overnight at 37° C. in the presence of 5% CO2 with 95% humidity. 2. TO benchmark data: • (1) 10 μL of PBS was added to each well of the TO flat plate containing the cells. • (2) The CTG reagent was thawed, and the cell plate was equilibrated to room temperature for 30 min. • (3) An equal volume of CTG solution was added to each well. • (4) The cells were shaken for 5 min on an orbital shaker for lysis. • (5) The cell plate was left at room temperature for 20 min to stabilize luminescent signals. • (6) The values of TO luminescent signals were read. 3. Compound dilution and addition • (1) According to the compound information table, a corresponding volume of DMSO was added to the corresponding compound powder to prepare a 10 mM stock solution. • (2) Compound solutions diluted at 1000 fold and 3.16 fold were prepared. • (3) The compound solution diluted at 1000 fold was diluted at 100 fold with PBS, to prepare the compound solutions at 10 fold in 9 concentrations, with the maximum concentration of […]; and the compound solution was diluted at 3.16 fold. 10 μL of medicament solution was added to each well of the seeded 96-well plate. Three replicate wells were provided for each concentration of the compound, and the final concentration of DMSO was 0.1%. • (4) Cells were placed in the 96-well plate containing the medicament and subsequently cultured for 72 hrs at 37° C. in the presence of 5% CO2 with 95% humidity, and then, CTG assay was conducted. 4. Reading of luminescent signals • (1) The CTG reagent was thawed, and the cell plate was equilibrated to room temperature for 30 min. • (2) An equal volume of CTG solution was added to each well. • (3) The cells were shaken for 5 min on an orbital shaker for lysis.
(§4) (4) The cell plate was left at room temperature for 20 min to stabilize the luminescent signals. • (5) Luminescent values were read. Data processing
(§5) The data were analyzed using software GraphPad Prism 7.0, and fitted by the nonlinear S-curve regression to obtain a dose-effect curve, based on which the IC50 value (unit: nM) was calculated, with the specific test results shown in Table 1.
(§6) Cell viability (%)=(Lum test medicament-Lum culture medium control)/(Lum cell control-Lum culture medium control)×100%.

[2] = target: Ba/F3 EGFR-V769_D770insASV (Homo sapiens, UniProt P00533, DUP767-769, cells depend on it); test: Cell proliferation assay (CellTiter-Glo), Ba/F3 EGFR-V769_D770insASV cells; settings: 72 hrs, CTG assay, * = average of multiple measurements, read-out: Ba/F3 EGFR-V769_D770insASV (nM), IC50 of cell proliferation
Chain of Ba/F3 EGFR-V769_D770insASV (P00533 with tags, fused parts or gaps DUP767-769): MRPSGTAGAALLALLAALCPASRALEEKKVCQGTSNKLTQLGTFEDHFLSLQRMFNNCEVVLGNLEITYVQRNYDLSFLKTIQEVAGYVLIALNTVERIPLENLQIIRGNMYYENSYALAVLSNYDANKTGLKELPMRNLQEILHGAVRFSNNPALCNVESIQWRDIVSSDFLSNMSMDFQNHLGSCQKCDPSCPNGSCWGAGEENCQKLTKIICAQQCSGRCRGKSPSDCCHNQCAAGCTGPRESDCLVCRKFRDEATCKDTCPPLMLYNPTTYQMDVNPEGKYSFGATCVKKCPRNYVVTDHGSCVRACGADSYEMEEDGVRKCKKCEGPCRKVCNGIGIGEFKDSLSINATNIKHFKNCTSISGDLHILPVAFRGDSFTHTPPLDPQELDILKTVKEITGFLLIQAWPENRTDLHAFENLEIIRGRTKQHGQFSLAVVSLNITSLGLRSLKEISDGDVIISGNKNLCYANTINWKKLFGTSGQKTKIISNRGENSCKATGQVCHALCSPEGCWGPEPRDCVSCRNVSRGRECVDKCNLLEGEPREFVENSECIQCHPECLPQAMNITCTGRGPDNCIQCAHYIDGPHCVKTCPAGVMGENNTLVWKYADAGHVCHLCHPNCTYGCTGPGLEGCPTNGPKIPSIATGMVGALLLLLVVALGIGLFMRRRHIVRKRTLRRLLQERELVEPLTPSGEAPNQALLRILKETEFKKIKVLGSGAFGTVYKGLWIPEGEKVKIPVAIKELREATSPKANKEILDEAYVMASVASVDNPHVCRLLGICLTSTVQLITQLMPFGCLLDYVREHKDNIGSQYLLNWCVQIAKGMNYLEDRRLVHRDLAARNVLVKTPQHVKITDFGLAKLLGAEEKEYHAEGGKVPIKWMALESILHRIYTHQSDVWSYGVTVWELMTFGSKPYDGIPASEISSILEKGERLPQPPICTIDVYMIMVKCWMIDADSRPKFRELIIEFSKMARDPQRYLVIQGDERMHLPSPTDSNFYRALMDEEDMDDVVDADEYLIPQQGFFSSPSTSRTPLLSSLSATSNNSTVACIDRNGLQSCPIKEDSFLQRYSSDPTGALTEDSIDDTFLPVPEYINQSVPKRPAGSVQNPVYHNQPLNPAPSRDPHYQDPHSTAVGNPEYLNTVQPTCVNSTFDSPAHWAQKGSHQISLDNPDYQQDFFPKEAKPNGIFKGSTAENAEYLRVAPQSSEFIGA
Protocol: as §1, §2, §3, §4, §5, §6

[3] = target: Ba/F3 EGFR-D770-N771ins_SVD (Homo sapiens, UniProt P00533, DUP768-770, cells depend on it); test: Cell proliferation assay (CellTiter-Glo), Ba/F3 EGFR-D770-N771ins_SVD cells; settings: 72 hrs, CTG assay, * = average of multiple measurements, read-out: Ba/F3 EGFR-D770-N771ins_SVD (nM), IC50 of cell proliferation
Chain of Ba/F3 EGFR-D770-N771ins_SVD (P00533 with tags, fused parts or gaps DUP768-770): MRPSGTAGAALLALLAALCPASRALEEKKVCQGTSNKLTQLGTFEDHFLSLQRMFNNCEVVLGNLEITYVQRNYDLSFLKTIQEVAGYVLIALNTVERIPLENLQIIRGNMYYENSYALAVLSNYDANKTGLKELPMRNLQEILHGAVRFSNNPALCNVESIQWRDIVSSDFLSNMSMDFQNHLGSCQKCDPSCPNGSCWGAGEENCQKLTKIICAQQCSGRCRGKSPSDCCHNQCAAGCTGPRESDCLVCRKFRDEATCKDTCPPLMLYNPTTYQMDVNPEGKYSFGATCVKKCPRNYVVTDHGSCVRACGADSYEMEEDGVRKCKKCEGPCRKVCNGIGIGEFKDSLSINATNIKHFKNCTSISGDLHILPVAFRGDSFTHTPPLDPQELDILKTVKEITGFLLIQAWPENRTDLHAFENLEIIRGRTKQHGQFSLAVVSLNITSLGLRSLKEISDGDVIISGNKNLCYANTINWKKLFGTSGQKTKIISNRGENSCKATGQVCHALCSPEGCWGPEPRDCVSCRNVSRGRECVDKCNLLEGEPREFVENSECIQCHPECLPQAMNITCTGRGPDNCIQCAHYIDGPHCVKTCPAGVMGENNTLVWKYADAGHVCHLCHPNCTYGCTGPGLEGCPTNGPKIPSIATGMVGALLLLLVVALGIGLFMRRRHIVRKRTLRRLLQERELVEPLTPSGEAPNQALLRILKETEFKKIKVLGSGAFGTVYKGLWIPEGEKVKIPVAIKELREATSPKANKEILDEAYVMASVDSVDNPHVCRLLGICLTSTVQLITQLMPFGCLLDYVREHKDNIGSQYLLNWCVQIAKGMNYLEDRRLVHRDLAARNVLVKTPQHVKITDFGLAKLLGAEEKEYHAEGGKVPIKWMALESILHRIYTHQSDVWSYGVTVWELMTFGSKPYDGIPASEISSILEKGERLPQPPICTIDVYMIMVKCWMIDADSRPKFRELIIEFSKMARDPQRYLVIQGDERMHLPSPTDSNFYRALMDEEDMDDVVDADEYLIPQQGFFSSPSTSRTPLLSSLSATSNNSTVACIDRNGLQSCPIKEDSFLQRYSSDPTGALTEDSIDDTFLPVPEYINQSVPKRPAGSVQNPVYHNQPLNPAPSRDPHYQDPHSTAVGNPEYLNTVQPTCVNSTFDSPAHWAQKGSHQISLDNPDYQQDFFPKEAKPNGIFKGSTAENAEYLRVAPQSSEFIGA
Protocol: as §1, §2, §3, §4, §5, §6

Compound | IC50 [1] [nM] | GI50 [2] [nM] | GI50 [3] [nM]
C=CC(=O)Nc1cc(Nc2nccc(N3CC4(CCC4)c4nc(C)ccc43)n2)c(OCC(F)(F)F)nc1N(C)CCN(C)C [Example 56, N-(2-((2-(dimethylamino)ethyl) (methyl)amino)-5-((4-(5′-methylspiro [cyclobutane-1,3′-pyrrolo[3,2-b]pyridin]-1′(2′H)-yl)pyrimidin-2-yl)amino)-6-(2,2,2-trifluoroethoxy)pyridin-3-yl)acrylamide] | 348 | 35.4 | 12
C=CC(=O)Nc1cc(Nc2cc(N3CC(C)(C)c4nc(C)c(C)cc43)ncn2)c(OC)cc1N(C)CCN(C)C [Example 28, N-(2-((2-(dimethylamino)ethyl) (methyl)amino)-4-methoxy-5-((6-(3,3,5,6-tetramethyl-2,3-dihydro-1H-pyrrolo[3,2-b]pyridin-1-yl)pyrimidin-4-yl)amino)phenyl)acrylamide] | 26.3 | 37.1 | 28.9
C=CC(=O)Nc1cc(Nc2nccc(N3CC(C)(C)c4nc(-n5cnc(C)c5)ccc43)n2)c(OC)cc1N(C)CCN(C)C [Example 60, N-(5-((4-(3,3-dimethyl-5-(4-methyl-1H-imidazole-1-yl)-2,3-dihydro-1H-pyrrolo[3,2-b]pyridin-1-yl)pyrimidin-2-yl)amino)-2-((2-(dimethylamino)ethyl)(methyl)amino)-4-methoxyphenyl)acrylamide] | 747 | 110 | 34.5
C=CC(=O)Nc1cc(Nc2cc(N3CC(C)(C)c4nc(C)ccc43)ccn2)c(OC)nc1N(C)CCN(C)C [Example 15, N-(2-((2-(dimethylamino)ethyl) (methyl)amino)-6-methoxy-5-((4-(3,3,5-trimethyl-2,3-dihydro-1H-pyrrolo[3,2-b]pyridin-1-yl)pyridin-2-yl)amino)pyridin-3-yl)acrylamide] | 815 | 74.8 | 37
C=CC(=O)Nc1cc(Nc2cc(N3CC(C)(C)c4nc(C)c(C)cc43)ncn2)c(OCC)cc1N(C)CCN(C)C [Example 35, N-(2-((2-(dimethylamino)ethyl) (methyl)amino)-4-ethoxy-5-((6-(3,3,5,6-tetramethyl-2,3-dihydro-1H-pyrrolo[3,2-b]pyridin-1-yl)pyrimidin-4-yl)amino)phenyl)acrylamide] | – | 94.8 | 40.1
C=CC(=O)Nc1cc(Nc2nccc(N3CC4(CCCCC4)c4nc(C)ccc43)n2)c(OC(F)F)cc1N(C)CCN(C)C [Example 36, N-(4-(difluoromethoxy)-2-((2-(dimethylamino)ethyl)(methyl)amino)-5-((4-(5′-methylspiro[cyclohexane-1,3′-pyrrolo[3,2-b]pyridin]-1′(2′H)-yl)pyrimidin-2-yl)amino)phenyl)acrylamide] | – | 51.5 | 33.2
C=CC(=O)Nc1cc(Nc2cc(N3CC(C)(C)c4nc5c(cc43)CCC5)ncn2)c(OC)cc1N(C)CCN(C)C [Example 26, N-(5-((6-(3,3-dimethyl-3,5,6,7-tetrahydrocyclopenta[b]pyrrolo[2,3-e]pyridin-1(2H)-yl)pyrimidin-4-yl)amino)-2-((2-(dimethylamino)ethyl)(methyl)amino)-4-methoxy-phenyl)acrylamide] | – | 76.1 | 22.9
C=CC(=O)Nc1cc(Nc2nccc(N3CC4(CCCC4)c4nc(C)ccc43)n2)c(OCC(F)(F)F)nc1N(C)CCN(C)C [Example 49, N-(2-((2-(dimethylamino)ethyl) (methyl)amino)-5-((4-(5′-methyl-spiro[cyclopentane-1,3′-pyrrolo[3,2-b]pyridin]-1′(2′H)-yl)pyrimidin-2-yl)amino)-6-(2,2,2-trifluoroethoxy)pyridin-3-yl)acrylamide] | 1020 | – | 25.2

Now from value to compound:

IC50 [1] [nM] | GI50 [2] [nM] | GI50 [3] [nM] | Compound
71.8 | 17.9 | 12.5 | C=CC(=O)Nc1cc(Nc2ncnc(N3CC(C)(C)c4nc(C)ccc43)n2)c(OC)cc1N(C)CCN(C)C [Example 8, N-(2-((2-(dimethylamino)ethyl) (methyl)amino)-4-methoxy-5-((4-(3,3,5-trimethyl-2,3-dihydro-1H-pyrrolo[3,2-b]pyridin-1-yl)-1,3,5-triazin-2-yl)amino)phenyl)acrylamide]
18.7 | 46.4 | 14.1 | C=CC(=O)Nc1cc(Nc2ncnc(N3CC4(CCC4)c4nc(C)ccc43)n2)c(OC)cc1N(C)CCN(C)C [Example 61, N-(2-((2-(dimethylamino)ethyl) (methyl)amino)-4-methoxy-5-((4-(5′-methylspiro[cyclobutane-1,3′-pyrrolo[3,2-b]pyridin]-1′(2′H)-yl)-1,3,5-triazin-2-yl)amino)phenyl) acrylamide]
264 | 84.3 | 35.5 | C=CC(=O)Nc1cc(Nc2nccc(N3CC4(CCCC4)c4nc(C)ccc43)n2)c(OC)cc1N(C)CCN(C)C [Example 33, N-(2-((2-(dimethylamino)ethyl) (methyl)amino)-4-methoxy-5-((4-(5′-methylspiro[cyclopentane-1,3′-pyrrolo[3,2-b]pyridin]-1′(2′H)-yl)pyrimidin-2-yl)amino)phenyl)acrylamide]
396 | 35.8 | 24.9 | C=CC(=O)Nc1cc(Nc2nccc(N3CC4(CCCC4)c4nc(C)ccc43)n2)c(OC(F)F)cc1N(C)CCN(C)C [Example 39, N-(4-(difluoromethoxy)-2-((2-(dimethylamino)ethyl)(methyl)amino)-5-((4-(5′-methylspiro[cyclo-pentane-1,3′-pyrrolo[3,2-b]pyridin]-1′(2′H)-yl)pyrimidin-2-yl)amino)phenyl)acrylamide]
11.1 | 33 | 13 | C=CC(=O)Nc1cc(Nc2ncnc(N3CC4(CCCCC4)c4nc(C)ccc43)n2)c(OC)cc1N(C)CCN(C)C [Example 31, N-(2-((2-(dimethylamino)ethyl) (methyl)amino)-4-methoxy-5-((4-(5′-methylspiro[cyclohexane-1,3′-pyrrolo[3,2-b]pyridin]-1′(2′H)-yl)-1,3,5-triazin-2-yl)amino)phenyl)acrylamide]
47.7 | 68.4 | 22.5 | C=CC(=O)Nc1cc(Nc2ncnc(N3CC(C)(C)c4nc(Cl)c(C)cc43)n2)c(OC)cc1N(C)CCN(C)C [Example 34, N-(5-((4-(5-chloro-3,3,6-trimethyl-2,3-dihydro-1H-pyrrolo[3,2-b]pyridin-1-yl)-1,3,5-triazin-2-yl)amino)-2-((2-(dimethylamino)ethyl) (methyl)amino)-4-methoxyphenyl) acrylamide]
15.2 | 14 | 2.9 | C=CC(=O)Nc1cc(Nc2ncnc(N3CC(C)(C)c4nc(C)c(C)cc43)n2)c(OC)cc1N(C)CCN(C)C [Example 20, N-(2-((2-(dimethylamino)ethyl) (methyl)amino)-4-methoxy-5-((4-(3,3,5,6-tetramethyl-2,3-dihydro-1H-pyrrolo[3,2-b]pyridin-1-yl)-1,3,5-triazin-2-yl)amino)phenyl)acrylamide]
– | 159 | 92.2 | C=CC(=O)Nc1cc(Nc2ncnc(N3CC(C)(C)c4nc(C)ccc43)n2)c(OC(C)C)cc1N(C)CCN(C)C [Example 37, N-(2-((2-(dimethylamino)ethyl) (methyl)amino)-4-isopropoxy-5-((4-(3,3,5-trimethyl-2,3-dihydro-1H-pyrrolo[3,2-b]pyridin-1-yl)-1,3,5-triazin-2-yl)amino)phenyl)acrylamide]

Source: patent US20240109885A1, “2,3-DIHYDRO-1H-PYRROLO[3,2-B]PYRIDINE DERIVATIVE, PREPARATION METHOD THEREFOR, AND APPLICATION THEREOF” (Abbisko Therapeutics Co., Ltd, priority 2020, published 2024)
